The subject of one data set is PC3 cells. Kind of data set: PC3 cell retraction assay. It counts as cell-based. As for the experimental part: (§1) FIGS. 9A-9G. A. PC3 cells pretreated for 15 min with the indicated concentrations of compound 1 or compound 2 were stimulated with 0.5 μg/mL ephrin-A1 Fc (+) or Fc as a control (−) for 20 min in the continued presence of the compounds. EphA2 immunoprecipitates were probed with anti-phosphotyrosine antibody (PTyr) and reprobed for EphA2. C indicates immunoprecipitations performed with control antibodies. B. Histogram showing the levels of EphA2 phosphorylation normalized to the amount of immunoprecipitated EphA2. Error bars indicate standard error from 3 experiments. Receptor phosphorylation levels were compared with those in the ephrin-stimulated cells by one-way ANOVA and Dunnett's post test. *P<0.05 and *P<0.01. C. PC3 cells stimulated with compound 1 as in (A) were stained with rhodamine-phalloidin to label actin filaments and DAPI to label nuclei. DMSO was used as a control (0 μM). D. Histogram showing the mean area of the cells normalized to the value obtained for the Fc stimulated cells. E. Histogram showing the mean percentage of retracting cells. Cells having rounded shape and area less than 20% of the mean value obtained for the Fc stimulated cells were scored as retracting. Error bars in D and E indicate standard error from 3 experiments. F-H. The same experiments as in (C-E) were performed using compound 2. The areas occupied by the cells and the percentage of cell retraction under different conditions were compared to those in the Fc control condition by one-way ANOVA and Dunnett's post test. *P<0.05 and **P<0.01. Scale bars in (C) and (F)=50 μm.
PC3 Cell Retraction Assay—PC3 cells were plated on glass coverslips and grown in RPMI 1640 medium (Mediatech, Inc, Herndon, Va.) with 10% FBS and Pen/Strep. After 17 hours the cells were starved for 3 hours in 0.5% FBS in DMEM and then incubated for 40 min with the compounds or DMSO, before stimulation for 10 min with 0.5 μg/mL of ephrin-A1 Fc or Fc as a control. The cells were fixed in 4% formaldehyde in PBS, permeabilized in 0.5% Triton X-100 in TBS and stained with rhodamine-conjugated phalloidin (Invitrogen, Carlsbad, Calif.) and DAPI. Cells were photographed under a fluorescence microscope and cell area was measured in a blinded manner using ImageJ software. Cells having rounded shape and area equal or below 20% of the area of Fc control-treated cells were considered as retracting.

For a further data set, the target named is EphA2 (Homo sapiens, UniProt P29317). As to the kind of experiment: EphA2 tyrosine phosphorylation in PC3 cells. It counts as cell-based. Set-up: endogenous in cells; host or cells: PC3. As for the experimental part:
as §1, with “D. Histogram showing the mean area of the cells normalized to the value obtained for the Fc stimulated cells. E. Histogram showing the mean percentage of retracting cells.” left out, “Error bars in D and E indicate standard error from 3 experiments. F-H. The same experiments as in (C-E) were performed using compound 2. The areas occupied by the cells and the percentage of cell retraction under different conditions were compared to those in the Fc control condition by one-way ANOVA and Dunnett's post test. *P<0.05 and **P<0.01. Scale bars in (C) and (F)=50 μm.” left out
Measurement of Receptor Tyrosine Phosphorylation in Cells—HT22 neuronal cells, which endogenously express EphA4, are derived from immortalized mouse hippocampal neurons (Li et al. (1997) Neuron 19(2), 453-463). […] The protein concentration was calculated using the BCA protein assay kit (Pierce Biotecnology, Rockford, Ill.). […]

In the next data set the test system is EGF receptor. Kind of data set: EGF receptor phosphorylation in COS7 cells. It counts as cell-based. Conditions: COS7 cells stimulated with EGF.
A further data set deals with HT22 neuronal cells. As to the kind of experiment: MTT cytotoxicity assay. It counts as cell-based, mouse. Conditions: concentrations up to 400 μM for several days. On the procedure: FIG. 7. HT22 neuronal cells were grown in the presence of the indicated concentrations of compounds 1 and 2 for 1, 2 and 3 days. Only DMSO was used in the “0 μM” sample, as a control. After addition of MTT, absorbance was measured at 570 nm to determine the levels of viable cells present. The histograms show the absorbance obtained for each condition normalized to the absorbance in the absence of the compounds. Error bars represent standard error from 3 measurements.
MTT Assay—The cytotoxicity of the compounds was measured using the 3-(4,5-dimethylthiazol-2-yl)-2,5-diphenyltetrazolium bromide (MTT) colorimetric assay. Cells were seeded in 96-well plates and treated with compounds or DMSO starting 3, 2 or 1 day before they reached 100% confluency. For the assay, MTT (Sigma-Aldrich, St. Louis, Mo.) was added at a final concentration of […] and incubated with the cells for 3 hours. The resulting formazan crystals were then solubilized by addition of 100% DMSO. The absorbance in each well was measured at 570 nm using an ELISA plate reader. The results were expressed as the ratio of the absorbance of the cells treated with the compounds and left untreated.

Sequence of EphA2 (P29317 24-976): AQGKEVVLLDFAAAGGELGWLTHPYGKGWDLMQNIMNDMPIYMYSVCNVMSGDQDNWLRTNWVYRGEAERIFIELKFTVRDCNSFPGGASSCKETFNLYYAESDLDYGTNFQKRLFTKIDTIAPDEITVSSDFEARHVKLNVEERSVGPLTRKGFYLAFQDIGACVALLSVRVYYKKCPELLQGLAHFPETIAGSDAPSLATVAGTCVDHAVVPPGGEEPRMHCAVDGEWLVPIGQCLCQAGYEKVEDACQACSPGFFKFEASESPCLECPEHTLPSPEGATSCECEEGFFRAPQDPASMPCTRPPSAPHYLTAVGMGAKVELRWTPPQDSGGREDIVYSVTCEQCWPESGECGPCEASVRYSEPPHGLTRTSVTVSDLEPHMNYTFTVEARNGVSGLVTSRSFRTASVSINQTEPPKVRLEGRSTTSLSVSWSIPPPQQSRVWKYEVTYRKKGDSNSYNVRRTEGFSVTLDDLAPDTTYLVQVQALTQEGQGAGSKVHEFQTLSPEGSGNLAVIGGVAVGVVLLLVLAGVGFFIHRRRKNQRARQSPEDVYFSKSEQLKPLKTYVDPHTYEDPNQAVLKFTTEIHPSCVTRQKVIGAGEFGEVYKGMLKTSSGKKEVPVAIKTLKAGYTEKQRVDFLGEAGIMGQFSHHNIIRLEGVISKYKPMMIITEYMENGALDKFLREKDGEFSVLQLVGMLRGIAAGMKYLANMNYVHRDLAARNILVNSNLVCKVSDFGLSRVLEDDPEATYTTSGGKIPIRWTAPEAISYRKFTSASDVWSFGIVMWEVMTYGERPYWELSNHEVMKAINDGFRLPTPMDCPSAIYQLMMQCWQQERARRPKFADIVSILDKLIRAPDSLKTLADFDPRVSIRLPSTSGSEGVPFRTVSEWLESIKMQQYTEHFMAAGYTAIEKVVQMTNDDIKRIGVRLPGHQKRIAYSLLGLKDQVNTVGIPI

In the case of `Cc1ccc(C)n1-c1ccc(O)c(C(=O)O)c1` [compound 2, 5-(2,5 dimethyl-pyrrol-1-yl)-2-hydroxy-benzoic acid], in the data set on PC3 cells, the “cell morphology in the absence of ephrin treatment” value was “did not affect”, the “decrease in cell spreading caused by ephrin-A1 Fc” value is “blocked” and the “increase in the percentage of rounded cells caused by ephrin-A1 Fc” value is on record as “blocked”. Besides, the “EphA2 activation following stimulation with ephrin-A1 Fc” value on EphA2 is “blocked”. Besides, the “phosphorylation of the EGF receptor” value in the data set on EGF receptor is given as “did not inhibit”. For the same compound, the “toxicity, cell viability by MTT” value with HT22 neuronal cells was “did not reveal any toxicity”.
For `Cc1ccc(C)n1-c1ccc(C(=O)O)c(O)c1` [compound 1, 4-(2,5-dimethyl-pyrrol-1-yl)-2-hydroxy-benzoic acid], in the data set with PC3 cells, the “cell morphology in the absence of ephrin treatment” value was “did not affect”, the “decrease in cell spreading caused by ephrin-A1 Fc” value is “blocked” and the “increase in the percentage of rounded cells caused by ephrin-A1 Fc” value was “blocked”. Besides, the “EphA2 activation following stimulation with ephrin-A1 Fc” value on EphA2 is recorded as “blocked”. Moreover, in the data set with EGF receptor, the “phosphorylation of the EGF receptor” value was “did not inhibit”. The “toxicity, cell viability by MTT” value in the data set on HT22 neuronal cells was “did not reveal any toxicity”.
